Test results: patent US12435059B2, “AMP-activated protein kinase inhibitors and methods of making and using the same” (The Regents of the University of Colorado, priority 2019, dated 2025)
Where two headings read alike, the source gives them in different places.

How the values were obtained:
Assay in all cases: biochemical
Assay type in all cases: binding
468 kinases [1] = target: 468 kinases (Homo sapiens, UniProt Q9UM73, C1156Y); settings: ALK(C1156Y); read-out: % Inhibition @ 100 nM
468 kinases [2] = target: 468 kinases (Homo sapiens, UniProt P27037); settings: ACVR2A; read-out: % Inhibition @ 100 nM
468 kinases [3] = target: 468 kinases (Homo sapiens, UniProt O43283); settings: LZK; read-out: % Inhibition @ 100 nM
468 kinases [4] = target: 468 kinases (Homo sapiens, UniProt P30530); settings: AXL; read-out: % Inhibition @ 100 nM
468 kinases [5] = target: 468 kinases (Homo sapiens, UniProt Q5S007, G2019S); settings: LRRK2(G2019S); read-out: % Inhibition @ 100 nM
468 kinases [6] = target: 468 kinases (Homo sapiens, UniProt Q99558); settings: NIK; read-out: % Inhibition @ 100 nM
468 kinases [7] = target: 468 kinases (Homo sapiens, UniProt P36888, D835H); settings: FLT3(D835H); read-out: % Inhibition @ 100 nM
468 kinases [8] = target: 468 kinases (Homo sapiens, UniProt Q9HCP0); settings: CSNK1G1; read-out: % Inhibition @ 100 nM
468 kinases [9] = target: 468 kinases (Homo sapiens, UniProt O95835); settings: LATS1; read-out: % Inhibition @ 100 nM
468 kinases [10] = target: 468 kinases (Homo sapiens, UniProt Q9UBF8); settings: PIK4CB; read-out: % Inhibition @ 100 nM
468 kinases [11] = target: 468 kinases (Homo sapiens, UniProt Q9UBE8); settings: NLK; read-out: % Inhibition @ 100 nM
468 kinases [12] = target: 468 kinases (Homo sapiens, UniProt Q5S007); settings: LRRK2; read-out: % Inhibition @ 100 nM
468 kinases [13] = target: 468 kinases (Homo sapiens, UniProt P36888); settings: read-out: % Inhibition @ 100 nM
468 kinases [14] = target: 468 kinases (Homo sapiens, UniProt P07949); settings: RET; read-out: % Inhibition @ 100 nM
468 kinases [15] = target: 468 kinases (Homo sapiens, UniProt P42336); settings: PIK3CA; read-out: % Inhibition @ 100 nM
468 kinases [16] = target: 468 kinases (Homo sapiens, UniProt P29323); settings: EPHB2; read-out: % Inhibition @ 100 nM
468 kinases [17] = target: 468 kinases (Homo sapiens, UniProt Q13177); settings: PAK2; read-out: % Inhibition @ 100 nM
468 kinases [18] = target: 468 kinases (Homo sapiens, UniProt P00533, L858R); settings: EGFR(L858R); read-out: % Inhibition @ 100 nM
468 kinases [19] = target: 468 kinases (Homo sapiens, UniProt P53779); settings: JNK3; read-out: % Inhibition @ 100 nM
468 kinases [20] = target: 468 kinases (Homo sapiens, UniProt Q7KZI7); settings: MARK2; read-out: % Inhibition @ 100 nM
468 kinases [21] = target: 468 kinases (Homo sapiens, UniProt P41240); settings: CSK; read-out: % Inhibition @ 100 nM
468 kinases [22] = target: 468 kinases (Homo sapiens, UniProt P48736); settings: PIK3CG; read-out: % Inhibition @ 100 nM
468 kinases [23] = target: 468 kinases (Homo sapiens, UniProt O94768); settings: DRAK2; read-out: % Inhibition @ 100 nM
468 kinases [24] = target: 468 kinases (Homo sapiens, UniProt Q6DT37); settings: DMPK2; read-out: % Inhibition @ 100 nM
468 kinases [25] = target: 468 kinases (Homo sapiens, UniProt P06213); settings: INSR; read-out: % Inhibition @ 100 nM
468 kinases [26] = target: 468 kinases (Homo sapiens, UniProt O14757); settings: CHEK1; read-out: % Inhibition @ 100 nM
468 kinases [27] = target: 468 kinases (Homo sapiens, UniProt Q9BYP7); settings: WNK3; read-out: % Inhibition @ 100 nM
468 kinases [28] = target: 468 kinases (Homo sapiens, UniProt O75914); settings: PAK3; read-out: % Inhibition @ 100 nM
468 kinases [29] = target: 468 kinases (Homo sapiens, UniProt Q9Y2U5); settings: MAP3K2; read-out: % Inhibition @ 100 nM
468 kinases [30] = target: 468 kinases (Homo sapiens, UniProt Q8WXR4); settings: MYO3B; read-out: % Inhibition @ 100 nM
468 kinases [31] = target: 468 kinases (Homo sapiens, UniProt Q9H2X6); settings: HIPK2; read-out: % Inhibition @ 100 nM
468 kinases [32] = target: 468 kinases (Homo sapiens, UniProt Q13554); settings: CAMK2B; read-out: % Inhibition @ 100 nM
468 kinases [33] = target: 468 kinases (Homo sapiens, UniProt Q9HC98); settings: NEK6; read-out: % Inhibition @ 100 nM

Row | Structure (SMILES) | inhibition at 0.1 µM (468 kinases [1]) | inhibition at 0.1 µM (468 kinases [2]) | inhibition at 0.1 µM (468 kinases [3]) | inhibition at 0.1 µM (468 kinases [4]) | inhibition at 0.1 µM (468 kinases [5]) | inhibition at 0.1 µM (468 kinases [6]) | inhibition at 0.1 µM (468 kinases [7]) | inhibition at 0.1 µM (468 kinases [8]) | inhibition at 0.1 µM (468 kinases [9]) | inhibition at 0.1 µM (468 kinases [10]) | inhibition at 0.1 µM (468 kinases [11]) | inhibition at 0.1 µM (468 kinases [12]) | inhibition at 0.1 µM (468 kinases [13]; FLT3 -autoinhibited) | inhibition at 0.1 µM (468 kinases [13]; FLT3) | inhibition at 0.1 µM (468 kinases [14]) | inhibition at 0.1 µM (468 kinases [15]) | inhibition at 0.1 µM (468 kinases [16]) | inhibition at 0.1 µM (468 kinases [17]) | inhibition at 0.1 µM (468 kinases [18]) | inhibition at 0.1 µM (468 kinases [19]) | further results
1 | CCN(CC)CCNC(=O)c1c(C)[nH]c(/C=C2\C(=O)Nc3ccc(CCO)cc32)c1C [Compound No. 10, (Z)—N-(2-(Diethylamino)ethyl)-5-((5-(2-hydroxyethyl)-2-oxoindolin-3-ylidene)methyl)-2,4-dimethyl-1H-pyrrole-3-carboxamide] | 90% | 10% | 0% | 88% | 89% | 17% | 91.7% | 0% | 43% | 0% | 5% | 96.5% | 81% | 96.7% | 55% | 0% | 3% | 0% | 0% | 0% | inhibition at 0.1 µM (468 kinases [20]): 6%; inhibition at 0.1 µM (468 kinases [21]): 0%; inhibition at 0.1 µM (468 kinases [22]): 0%; inhibition at 0.1 µM (468 kinases [23]): 1%; inhibition at 0.1 µM (468 kinases [24]): 0%; inhibition at 0.1 µM (468 kinases [25]): 0%; inhibition at 0.1 µM (468 kinases [26]): 42%; inhibition at 0.1 µM (468 kinases [27]): 9%; inhibition at 0.1 µM (468 kinases [28]): 36%; inhibition at 0.1 µM (468 kinases [29]): 77%; inhibition at 0.1 µM (468 kinases [30]): 0%; inhibition at 0.1 µM (468 kinases [31]): 58%; inhibition at 0.1 µM (468 kinases [32]): 0%; inhibition at 0.1 µM (468 kinases [33]): 19%
2 | CCN(CC)CCNC(=O)c1c(C)[nH]c(/C=C2\C(=O)Nc3ccc(CCC(N)=O)cc32)c1C [Compound No. 16, (Z)-5-((5-(3-Amino-3-oxopropyl)-2-oxoindolin-3-ylidene)methyl)-N-(2-(diethylamino)ethyl)-2,4-dimethyl-1H-pyrrole-3-carboxamide] | 86% | 18% | 61% | 92.5% | 88% | 16% | 92.9% | 16% | 17% | 10% | 8% | 94% | 61% | 62% | 60% | 14% | 10% | 0% | 32% | 55% | inhibition at 0.1 µM (468 kinases [20]): 40%; inhibition at 0.1 µM (468 kinases [21]): 1%; inhibition at 0.1 µM (468 kinases [22]): 22%; inhibition at 0.1 µM (468 kinases [23]): 0%; inhibition at 0.1 µM (468 kinases [24]): 20%; inhibition at 0.1 µM (468 kinases [25]): 25%; inhibition at 0.1 µM (468 kinases [26]): 66%; inhibition at 0.1 µM (468 kinases [27]): 7%; inhibition at 0.1 µM (468 kinases [28]): 13%; inhibition at 0.1 µM (468 kinases [29]): 29%; inhibition at 0.1 µM (468 kinases [30]): 0%; inhibition at 0.1 µM (468 kinases [31]): 99.5%; inhibition at 0.1 µM (468 kinases [32]): 10%; inhibition at 0.1 µM (468 kinases [33]): 0%
